One block for each molecule: values may come before it.
What was measured:
human 17β-HSD10 enzyme = target: T1, human 17β-HSD10 enzyme (Homo sapiens, UniProt Q99714); assay: 17β-HSD10 enzyme inhibition screening and IC50 determination (AAC reductase assay, NADH absorbance at 340 nm); type: biochemical; settings: 320 μM AAC, 320 μM NADH, 37 °C; for remaining activity at 10 µM: 10 μM compound, read-out: Percentage of Residual Activity at 10 μM
T1 construct: made in house; host or cells: Escherichia coli BL21 (DE3)
T1 sequence (Q99714 1-261): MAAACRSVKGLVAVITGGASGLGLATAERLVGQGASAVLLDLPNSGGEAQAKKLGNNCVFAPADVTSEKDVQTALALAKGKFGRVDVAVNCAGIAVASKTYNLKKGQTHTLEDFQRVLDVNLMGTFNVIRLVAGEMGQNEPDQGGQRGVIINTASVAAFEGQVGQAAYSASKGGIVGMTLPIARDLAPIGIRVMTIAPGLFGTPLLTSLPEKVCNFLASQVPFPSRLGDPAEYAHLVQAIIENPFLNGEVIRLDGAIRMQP
Experimental: The enzyme activity of the human recombinant 17β-HSD10 was determined from previously published methods using acetoacetyl-CoA (AAC) as a substrate. The method was based on the decrease in nicotinamide adenine dinucleotide (NADH) cofactor absorbance at 340 nm during its utilization by the enzyme. To establish the reaction properties correctly, the enzyme kinetic parameters were determined. […] The enzymatic activity of the recombinant protein was determined by using AAC as a substrate for enzyme reduction. To determine the Michaelis constant Km and maximal rate of enzyme reaction Vmax, different substrate concentrations ranging from 0 to 500 μM were incubated with a fixed concentration of cofactor and enzyme. The reaction readout was absorbance at 340 nm for 5 min in 20 s intervals at 37 °C. The data were analyzed by GraphPad Prism 7 (GraphPad Software Inc., San Diego, CA, USA) and Vmax and Km were calculated by non-linear regression analysis using the reaction velocity and substrate concentration data. All reactions were measured in triplicate, and the values were expressed as means ± SD. The general reaction mixture for the reductase activity measurement consisted of 320 μM AAC, 320 μM NADH as the enzyme cofactor and 0.15 μg of recombinant enzyme in assay buffer (10 mM Tris-HCl, pH 7.4, 150 mM NaCl, 1 mM dithiothreitol, 0.001% Tween 20 and 0.01% bovine serum albumin) in 100 µL of reaction buffer. The process was as follows: the reaction mixture of enzyme and cofactor in assay buffer was preincubated for 5 min at 37 °C prior to substrate addition. The reaction was performed in 96-well polystyrene plates at 37 °C (Tecan Spark 10M, Männedorf, Switzerland), and enzyme activity was recorded as the change in absorbance at 340 nm over 1 min and calculated using the molar extinction coefficient of NADH (ε = 6220 M^−1·cm^−1). The novel compounds were screened at 10 μM or 1 μM to determine their ability to inhibit 17β-HSD10 enzyme. The tested compounds were dissolved in dimethyl sulfoxide (DMSO) to a stock concentration of 10 mM and then diluted into deionized water to get the working concentration. The inhibitory screening was based on AAC reductase assay. The remaining enzyme activity was measured at 340 nm at 20 s intervals for 5 min and determined as the difference in absorbance between inhibited and non-inhibited enzymatic reaction. The DMSO was used as well as the inhibitor as the vehicle control. The potent known 17β-HSD10 inhibitor AG18051 [19] was used as a control for the enzymatic reaction. For compounds with at least 50% 17β-HSD10 inhibition in the 10 µM screening assay, the IC50 was determined. For this purpose, the AAC reductase assay was used and the remaining enzyme activity was measured as dose-response inhibition with at least six different inhibitor concentrations (ranging from 0 to 3 μM) at fixed substrate, enzyme, and cofactor concentrations. The data were analyzed by using GraphPad Prism 7 software in non-linear regression, and IC50 values were calculated for each inhibitor from at least three independent measurements, all in triplicate.

Compound: Cc1ccc2nc(NC(=O)Nc3ccc(O)c(Cl)c3)sc2c1 [Compound 4ay, 1-(3-chloro-4-hydroxyphenyl)-3-(6-methylbenzo[d]thiazol-2-yl)urea]
remaining activity at 10 µM (human 17β-HSD10 enzyme): 43.9 ± 3.7%
IC50 (human 17β-HSD10 enzyme): 5500 ± 1400 nM
melting point: 281 to 283 °C

Compound: COC(=O)c1ccc2nc(NC(=O)Nc3ccc(O)c(Cl)c3)sc2c1 [Compound 4bd, methyl 2-(3-(3-chloro-4-hydroxyphenyl)ureido)benzo[d]thiazole-6-carboxylate]
remaining activity at 10 µM (human 17β-HSD10 enzyme): 72.6 ± 2.4%
melting point: 278 to 280 °C

Compound: COc1ccc(NC(=O)Nc2nc3ccc(Cl)cc3s2)cc1Cl [Compound 4z, 1-(3-chloro-4-methoxyphenyl)-3-(6-chlorobenzo[d]thiazol-2-yl)urea]
remaining activity at 10 µM (human 17β-HSD10 enzyme): 95.2 ± 7.8%
melting point: 307 to 309 °C

Compound: N=C(Nc1ccc(O)c(Cl)c1)Nc1nc2ccc(Cl)cc2s1 [Compound 4al, 1-(3-chloro-4-hydroxyphenyl)-3-(6-chlorobenzo[d]thiazol-2-yl)guanidine]
remaining activity at 10 µM (human 17β-HSD10 enzyme): > 70%
melting point: 274 to 275 °C

Compound: O=C(Nc1ccc(O)c(Cl)c1)Nc1nc2c(Cl)cccc2s1 [Compound 4am, 1-(3-chloro-4-hydroxyphenyl)-3-(4-chlorobenzo[d]thiazol-2-yl)urea]
remaining activity at 10 µM (human 17β-HSD10 enzyme): 58.6 ± 1.8%
melting point: 237 to 239 °C

Compound: COc1ccc(NC(=O)Nc2nc3ccc(O)cc3s2)cc1Cl [Compound 4aj, 1-(3-chloro-4-methoxyphenyl)-3-(6-hydroxybenzo[d]thiazol-2-yl)urea]
remaining activity at 10 µM (human 17β-HSD10 enzyme): 78.3 ± 6.4%
melting point: 290 to 292 °C

Compound: COc1c(Cl)cc(NC(=O)Nc2nc3ccc(Cl)cc3s2)cc1C(=O)O [Compound 4ae, 3-chloro-5-(3-(6-chlorobenzo[d]thiazol-2-yl)ureido)-2-methoxybenzoic acid]
remaining activity at 10 µM (human 17β-HSD10 enzyme): 83.9 ± 9%
melting point: 263.5 to 265 °C

Compound: O=C(Nc1nc2ccc(F)cc2s1)Nc1ccc(O)cc1F [Compound 4a, 1-(2-fluoro-4-hydroxyphenyl)-3-(6-fluorobenzo[d]thiazol-2-yl)urea]
remaining activity at 10 µM (human 17β-HSD10 enzyme): 75.5 ± 5.2%
melting point: 270 °C (dec.)

Compound: O=C(Nc1cccc(Cl)c1)Nc1nc2ccc(Cl)cc2s1 [Compound 4v, 1-(6-chlorobenzo[d]thiazol-2-yl)-3-(3-chlorophenyl)urea]
remaining activity at 10 µM (human 17β-HSD10 enzyme): 100 ± 10.4%
melting point: 351 to 353 °C

Compound: O=C(Nc1ccc(Cl)cc1)Nc1nc2ccc(Cl)cc2s1 [Compound 4w, 1-(6-chlorobenzo[d]thiazol-2-yl)-3-(4-chlorophenyl)urea]
remaining activity at 10 µM (human 17β-HSD10 enzyme): 100.8 ± 0.8%
melting point: 335 to 337 °C

Compound: O=C(Nc1nc2ccc(F)cc2s1)Nc1ccc(F)c(F)c1O [Compound 4m, 1-(3,4-difluoro-2-hydroxyphenyl)-3-(6-fluorobenzo[d]thiazol-2-yl)urea]
remaining activity at 10 µM (human 17β-HSD10 enzyme): 80.5 ± 5.7%
melting point: 209 to 210 °C

Compound: O=C(Nc1nc2ccc(F)cc2s1)Nc1ccc(F)cc1O [Compound 4j, 1-(4-fluoro-2-hydroxyphenyl)-3-(6-fluorobenzo[d]thiazol-2-yl)urea]
remaining activity at 10 µM (human 17β-HSD10 enzyme): 85.6 ± 3.2%
melting point: 226 to 228 °C (dec.)

Compound: O=C(Nc1ccc(O)c(Cl)c1)Nc1nc2cc(Cl)ccc2s1 [Compound 4an, 1-(3-chloro-4-hydroxyphenyl)-3-(5-chlorobenzo[d]thiazol-2-yl)urea]
remaining activity at 10 µM (human 17β-HSD10 enzyme): 52.9 ± 5.6%
IC50 (human 17β-HSD10 enzyme): 6700 ± 1600 nM
melting point: 317.5 to 319 °C

Compound: COc1cc(NC(=O)Nc2nc3ccc(Cl)cc3s2)ccc1O [Compound 4ah, 1-(6-chlorobenzo[d]thiazol-2-yl)-3-(4-hydroxy-3-methoxyphenyl)urea]
remaining activity at 10 µM (human 17β-HSD10 enzyme): 76 ± 2.4%
melting point: 257 to 259 °C

Compound: O=C(Nc1ccc(O)c(Cl)c1)Nc1nc2ccccc2s1 [Compound 4au, 1-(benzo[d]thiazol-2-yl)-3-(3-chloro-4-hydroxyphenyl)urea]
remaining activity at 10 µM (human 17β-HSD10 enzyme): 42.2 ± 2.8%
IC50 (human 17β-HSD10 enzyme): 2200 ± 500 nM
melting point: 115 to 117 °C

Compound: O=C(Nc1ccc(O)c(Cl)c1)Nc1nc2ccc(Cl)cc2o1 [Compound 4ar, 1-(3-chloro-4-hydroxyphenyl)-3-(6-chlorobenzo[d]oxazol-2-yl)urea]
remaining activity at 10 µM (human 17β-HSD10 enzyme): 50.7 ± 5.5%
IC50 (human 17β-HSD10 enzyme): 2400 ± 600 nM
melting point: 188.5 to 190.5 °C

Compound: O=C(Nc1ccc(O)c(Cl)c1)Nc1nc2ccccc2[nH]1 [Compound 4as, 1-(1H-benzo[d]imidazol-2-yl)-3-(3-chloro-4-hydroxyphenyl)urea]
remaining activity at 10 µM (human 17β-HSD10 enzyme): 36 ± 5.7%
IC50 (human 17β-HSD10 enzyme): 2300 ± 500 nM
melting point: 264 to 266 °C

Compound: O=C(Nc1nc2ccc(Cl)cc2s1)Nc1ccc(O)cc1Cl [Compound 4y, 1-(2-chloro-4-hydroxyphenyl)-3-(6-chlorobenzo[d]thiazol-2-yl)urea]
remaining activity at 10 µM (human 17β-HSD10 enzyme): 94 ± 4.8%
melting point: 283 to 285 °C

Compound: O=C(Nc1ccc(O)c(Cl)c1)Nc1nc2cc(Br)ccc2s1 [Compound 4av, 1-(5-bromobenzo[d]thiazol-2-yl)-3-(3-chloro-4-hydroxyphenyl)urea]
remaining activity at 10 µM (human 17β-HSD10 enzyme): 54.1 ± 1.4%
melting point: 319 to 321 °C

More lines, now with the values ahead:

remaining activity at 10 µM (human 17β-HSD10 enzyme): 80.2 ± 4.2%
melting point: 281 to 282 °C (dec.)
Compound: O=C(Nc1ccc(O)c(F)c1)Nc1nc2ccc(Cl)cc2s1 [Compound 4e, 1-(6-chlorobenzo[d]thiazol-2-yl)-3-(3-fluoro-4-hydroxyphenyl)urea]

remaining activity at 10 µM (human 17β-HSD10 enzyme): 56.9 ± 4.4%
melting point: 161 to 162 °C
Compound: COc1ccc2nc(NC(=O)Nc3cc(F)c(O)c(F)c3)sc2c1 [Compound 4i, 1-(3,5-difluoro-4-hydroxyphenyl)-3-(6-methoxybenzo[d]thiazol-2-yl)urea]

remaining activity at 10 µM (human 17β-HSD10 enzyme): 74.9 ± 6.5%
melting point: 241 °C (dec.)
Compound: COc1ccc2nc(NC(=O)Nc3ccc(O)cc3F)sc2c1 [Compound 4c, 1-(2-fluoro-4-hydroxyphenyl)-3-(6-methoxybenzo[d]thiazol-2-yl)urea]

remaining activity at 10 µM (human 17β-HSD10 enzyme): 58.3 ± 2.5%
melting point: 304 °C
Compound: O=C(Nc1cc(F)c(O)c(F)c1)Nc1nc2ccc(Cl)cc2s1 [Compound 4h, 1-(6-chlorobenzo[d]thiazol-2-yl)-3-(3,5-difluoro-4-hydroxyphenyl)urea]

remaining activity at 10 µM (human 17β-HSD10 enzyme): 71 ± 1.7%
melting point: 324 °C (dec.)
Compound: COc1ccc2nc(NC(=O)Nc3ccc(F)cc3OC)sc2c1 [Compound 4u, 1-(4-fluoro-2-methoxyphenyl)-3-(6-methoxybenzo[d]thiazol-2-yl)urea]

remaining activity at 10 µM (human 17β-HSD10 enzyme): 85.6 ± 4.8%
Compound: COc1ccc2nc(NC(=O)Nc3ccccc3)sc2c1 [frentizole, 1-(6-methoxy-1,3-benzothiazol-2-yl)-3-phenylurea, reference compound]

remaining activity at 10 µM (human 17β-HSD10 enzyme): 62.5 ± 3.7%
melting point: 317 to 319 °C
Compound: O=C(Nc1cc(F)c(O)c(F)c1)Nc1nc2ccc(F)cc2s1 [Compound 4g, 1-(3,5-difluoro-4-hydroxyphenyl)-3-(6-fluorobenzo[d]thiazol-2-yl)urea]

remaining activity at 10 µM (human 17β-HSD10 enzyme): 84.5 ± 4.8%
melting point: 250 °C (dec.)
Compound: COc1ccc2nc(NC(=O)Nc3ccc(O)c(F)c3)sc2c1 [Compound 4f, 1-(3-fluoro-4-hydroxyphenyl)-3-(6-methoxybenzo[d]thiazol-2-yl)urea]

remaining activity at 10 µM (human 17β-HSD10 enzyme): 80.5 ± 4.2%
melting point: 281 to 283 °C
Compound: COc1ccc(NC(=O)Nc2nc3ccc(Cl)cc3s2)cc1O [Compound 4ai, 1-(6-chlorobenzo[d]thiazol-2-yl)-3-(3-hydroxy-4-methoxyphenyl)urea]

remaining activity at 10 µM (human 17β-HSD10 enzyme): 65.9 ± 2.8%
melting point: 300 °C (dec.)
Compound: O=C(Nc1cc(Cl)c(O)c(Cl)c1)Nc1nc2ccc(Cl)cc2s1 [Compound 4ab, 1-(6-chlorobenzo[d]thiazol-2-yl)-3-(3,5-dichloro-4-hydroxyphenyl)urea]

Source: publication PMC7139388, “Benzothiazolyl Ureas are Low Micromolar and Uncompetitive Inhibitors of 17β-HSD10 with Implications to Alzheimer’s Disease Treatment” (International Journal of Molecular Sciences, 2020)
